Experiments:
Type in all cases: cell-based
[1] = system: VEGF promoter constructs pVEGF1 and pVEGF2; assay: VEGF promoter (pVEGF1/pVEGF2) luciferase transactivation in Panc-1 cells; conditions: Panc-1 cells; for transactivation of pVEGF2, concentration dependence: 20-80 μM
Protocol: Transfection of Panc-1 cells with pVEGF1 and pVEGF2 and treatment with 50 μM ampiroxicam and tolfenamic acid (FIGS. 2A, 2B) or diclofenac sodium (FIGS. 2C, 2D) with pVEGF1 or pVEGF2 constructs. Cells were transfected with pVEGF1 or pVEGF2 treated with DMSO, 50 μM ampiroxicam, tolfenamic acid, or diclofenac sodium, and luciferase activity determined. Transfection of L3.6pl cells with pVEGF1 (FIG. 2E) or pVEGF2 constructs (FIG. 2F). […] Panc-1 cells were transfected with pVEGF2, treated with 20, 40, 60 or 80 μM ampiroxicam or tolfenamic acid, and luciferase determined. Results presented herein are means ±SE for three separate determinations per treatment group, and significant (p<0.05) decrease in luciferase activity is indicated by an asterisk.
(§1) Cells are cultured in 6-well plates in 2 ml of DME/F12 medium supplemented with 5% fetal bovine serum. After 16-20 hr when cells are 50-60% confluent, reporter gene constructs are transfected using LIPOFECTAMINE™ reagent (Invitrogen, Carlsbad, Calif.). The effects of the selective non-steroidal anti-inflammatory drugs on transactivation are investigated in Panc1 and L3.6pl cells co-transfected with different VEGF constructs (500 ng). […] For proteasome inhibitor experiments, cells will be co-treated with 2 μM lactacystin, and for electrophoretic mobility shift assay (EMSA), nuclear extracts from Panc1 and L3.6pl cells are isolated as described, and aliquots will be stored at −80° C. until used (Abdelrahim et al, 2004; Abdelrahim et al, 2005).
Previous studies have shown COX-2 inhibitors or small interfering RNAs for Sp proteins decreased vascular endothelial growth factor expression in colon and pancreatic cells (Abdelrahim et al, 2005; Baker et al, 2002; Masferrer et al, 2000; Bouwman et al, 2002). The effects of DMSO, 50 μM tolfenamic acid and 50 μM ampiroxicam on vascular endothelial growth factor expression were initially investigated in Panc-1 cells transfected with the pVEGF1 and pVEGF2 constructs, which contain −2018 to +50 and −131 to +54 VEGF promoter inserts, respectively (FIGS. 2A and 2B).

[2] = system: Sp protein binding to GC-rich VEGF promoter oligonucleotide; assay: Gel mobility shift of nuclear extracts from Panc-1 cells with VEGF32P; conditions: nuclear extracts of Panc-1 cells treated with 50 μM for 48 hr
Protocol: Vascular endothelial growth factor and VEGFR1 oligonucleotides are synthesized and annealed, and 5 pmol aliquots are 5′-end-labeled using T4 kinase and [y-^32P]ATP. After the reaction sample was incubated 20 min on ice, and antibodies against Sp1, Sp3, and Sp4 proteins are added and incubated another 20 min on ice. Protein-DNA complexes are resolved by 5% polyacrylamide gel electrophoresis as previously described (Abdelrahim et al, 2004; Abdelrahim et al, 2005, Abdelrahim et al, submitted 2005).
Panc1 or L3.6pl cells were treated with DMSO, 50 μM tolfenamic acid or 50 μM ampiroxicam for 48 hr. Nuclear extracts from these cells were isolated, incubated with VEGF^32P and analyzed in gel mobility shift assays.
The radiolabeled oligonucleotide contained a GC-rich region (−66 to −47) from the VEGF promoter that binds Sp proteins.

[3] = system: VEGFR1 promoter; assay: VEGFR1 promoter (pVEGFR1A-C) luciferase activity in Panc-1 cells; conditions: 50 μM
Protocol: as §1, with “FIGS. 17A-17D show effects of tolfenamic acid on the VEGFR1 promoter and mRNA expression. Transfection with pVEGFR1-A (FIG. 17A), pVEGFR1-B (FIG. 17B), and pVEGFR1-C (FIG. 17C). Panc-1 cells were transfected with pVEGFR1 constructs, treated with DMSO, 50 μM ampiroxicam, or 50 μM tolfenamic acid, and luciferase activity was determined as described in Materials and Methods. […] Results are shown for a single experiment and similar data was obtained in replicate experiments. Cells” for “Cells”

[4] = system: VEGF-B/VEGFR1 signaling (MAPK1/2 phosphorylation); assay: VEGF-B activation of MAPK in Panc-1 cells; conditions: 50 μM pretreatment for 36 hr, VEGF-B 5 or 10 min
Protocol: (§2) Cells were pretreated with DMSO, 50 μM ampiroxicam, or 50 μM tolfenamic acid for 36 hr; VEGF-B (50 ng/ml) was added for 5 or 10 min, and whole cell lysates were obtained and analyzed by Western blot. Cell migration assay (FIG. 18C). […] Immunostaining of pancreatic tumors (FIG. 18D). Pancreatic tumors from athymic nude mice treated with solvent (control), gemcitabine (50 mg/kg), or tolfenamic acid (25 and 50 mg/kg) (Dick, 1996) were stained with VEGFR1 antibodies as described below and in a previous report (Dick, 1996).
Panc-1 cells were pretreated with DMSO, 50 μM ampiroxicam, or 50 μM tolfenamic acid for 48 h, and then were treated with VEGF-B (50 ng/ml) for 5 and 10 min. MAPK phosphorylation in the various treatment groups was then determined by western immunoblot analysis as described above. For migration assays, Panc-1 cells were seeded in triplicate in six-well collagen IV coated plates and then treated with the selected non-steroidal anti-inflammatory drugs for 24 h before the scratch was made. […]
(§3) Previous studies have reported that activation of VEGFR1 by VEGF-B in pancreatic cancer cells results in enhanced phosphorylation of MAPK and increased cell migration and invasion. […] The importance of Sp protein in VEGFR1-dependent Panc-1 cell migration was determined using a cell migration assay on collagen IV-coated plates.

[5] = system: Panc-1 cells; assay: Panc-1 cell migration (scratch) assay on collagen IV-coated plates; conditions: 50 μM; for VEGF-B-induced cell migration: VEGF-B 50 ng/ml, 16 h
Protocol: as §2
Panc-1 cells were pretreated with DMSO, 50 μM ampiroxicam, or 50 μM tolfenamic acid for 48 h, and then were treated with VEGF-B (50 ng/ml) for 5 and 10 min. MAPK phosphorylation in the various treatment groups was then determined by western immunoblot analysis as described above. For migration assays, Panc-1 cells were seeded in triplicate in six-well collagen IV coated plates and then treated with the selected non-steroidal anti-inflammatory drugs for 24 h before the scratch was made. A scratch through the central axis of the plate was gently made using a sterile pipette tip. Cells were 70% confluent when the scratch was made. […] Results of this study were obtained at a 16 h time point and one plate was stained using DIFF QUIK (Dade Behring, Newark, Del.).
as §3

CCOC(=O)OC(C)OC1=C(C(=O)Nc2ccccn2)N(C)S(=O)(=O)c2ccccc21 (centres unmarked) [ampiroxicam]
luciferase activity, pVEGF1 and pVEGF2 constructs ([1]; 50 μM): but not ampiroxicam, significantly decreased activities
luciferase activity, pVEGF2 ([1]; 50 μM, in presence or absence of lactacystin): did not affect luciferase activity
transactivation of pVEGF2, concentration dependence [1]: showed no effect
Sp3 and Sp1/Sp4 retarded bands with VEGF32P [2]: retarded bands of similar intensity
luciferase activity, pVEGFR1A, pVEGFR1B and pVEGFR1C [3]: but not DMSO or ampiroxicam, decreased luciferase activity
VEGF-B-induced phosphorylation of MAPK1/2 [4]: increased phosphorylation of MAPK1/2
VEGF-B-induced cell migration [5]: inactive in all assays

Cc1c(Cl)cccc1Nc1ccccc1C(=O)O [tolfenamic acid]
luciferase activity, pVEGF1 and pVEGF2 constructs ([1]; 50 μM): significantly decreased activities
transactivation of pVEGF2, concentration dependence [1]: concentration-dependent decrease in transactivation
Sp3 and Sp1/Sp4 retarded bands with VEGF32P [2]: retarded bands were decreased
luciferase activity, pVEGFR1A, pVEGFR1B and pVEGFR1C [3]: decreased luciferase activity
VEGF-B-induced phosphorylation of MAPK1/2 [4]: decreased phospho-MARK1/2
cell migration in the absence of VEGF-B ([5]; 16 h time point, DMSO set at 100%): only significantly inhibited by tolfenamic acid
VEGF-B-induced cell migration [5]: significantly inhibited VEGF-B-induced cell migration
